Source: US5891454A, “Anti-cancer drug and special tumor necrotizing agent” (Wu; Alexander, priority 1997, dated 1999)
Several values for one entry are separate records, joined by “and”; a condition that tells them apart may be missing. Identical values can stand only once.

How the values were obtained:
[1] = test system: mouse transplanted liver tumor; assay: Anti-tumor effect on mouse transplanted liver tumor (I.M.); assay type: in vivo; conditions: CTX 18.0 mg/kg/d x10
From the text: (§1) A solvent blank (i.e., the specifically designed solution illustrated in Table 1), a saline blank as a […] control are used as controls for the in vivo tests. As per the Drug Administration Law of the People's Republic of China, and the rules governing observation of the pharmaco-dynamic study of the therapy action, the tumors were surgically removed from tumor infected mice and were homogenized to form suspensions followed by filtration to make a suspension solution at 1×10^6 -10^7 cell/ml. The suspension was injected (i.e., 0.2 ml per mice) into the test mice for tumor growth until the transplanted tumor cells were established and grew up to a size of 0.5×0.5 cm. […] At the end of the in vivo tests, several parameters such as mouse body weight, average tumor weight and percentage of tumor inhibition, are determined.
(§2) % inhibition rate=(average tumor weight of the solvent group or
(§3) tumor rate of the solvent group

mouse S-180 sarcoma = assay: Anti-tumor effect on mouse transplanted sarcoma S-180 (I.M.); assay type: in vivo; conditions: CTX 18.0 mg/kg/d x10
From the text: as §1, §2, §3

skin fungal diseases = conditions: 7-8% solution by weight with propylene glycol; cited from earlier work
Solubility in water = assay type: physicochemical; conditions: water or a water-based solution
[2] = P <0.01 vs saline control, three experiments

SMILES	Anti-tumor inhibit rate [1, 2]	Body weight final ([1]; outset 19.9, 20.3, 20.9 in three experiments, in g (unit assumed))	Ave. weight of tumor (x + SD) ([1]; three experiments)	Anti-tumor inhibit rate (mouse S-180 sarcoma; [2])	Body weight final (mouse S-180 sarcoma; outset 22.4, 22.6, 19.3 in three experiments, in g (unit assumed))	Ave. weight of tumor (x ± SD) (mouse S-180 sarcoma; three experiments)	topical anti-fungal activity (skin fungal diseases)	dissolution in water (Solubility in water)
O=P1(N(CCCl)CCCl)NCCCO1 (centres unmarked) [CTX]	40.7% and 46.2% and 60.0%	27.9 and 28.5	1.81 ± 0.22 g and 1.57 ± 0.63 g and 0.94 ± 0.41 g	51.6% and 53.3% and 52.5%	30.9 and 26.4	1.37 ± 0.47 g and 1.29 ± 0.43 g and 1.14 ± 0.28 g		
Cc1ccc(S(N)(=O)=O)cc1 [para-toluene sulfonamide]							highly effective	not readily dissolved in water or in a water-based solution
